Experimental data: paper PMC8119466, “A screen of FDA-approved drugs identifies inhibitors of protein tyrosine phosphatase 4A3 (PTP4A3 or PRL-3)” (Scientific Reports, 2021)
Structures can show the parent of a compound that is named as a salt. Where two headings read alike, the source gives them in different places.

What was measured:
Format in all cases: biochemical
recombinant PRL-2 = target: T1, recombinant PRL-2 (Homo sapiens, UniProt Q12974); experiment: In vitro phosphatase assay (DiFMUP hydrolysis), PRL-2;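 further: PRL-2 activity read as DiFMUP hydrolysis after 20 min at room temperature with drug, enzyme first pre-reduced at 4 °C for 20 min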
T1 construct: 6xHis (N, cleaved yes); made in house; host or cells: E. coli One Shot BL21 Star
T1 sequence (Q12974 1-167): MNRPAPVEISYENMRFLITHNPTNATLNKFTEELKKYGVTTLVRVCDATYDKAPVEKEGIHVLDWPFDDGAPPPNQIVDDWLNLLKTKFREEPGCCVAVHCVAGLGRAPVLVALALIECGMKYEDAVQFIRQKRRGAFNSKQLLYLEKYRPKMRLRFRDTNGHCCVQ

recombinant PRL-1 = target: T2, recombinant PRL-1 (Homo sapiens, UniProt Q93096); experiment: In vitro phosphatase assay (DiFMUP hydrolysis), PRL-1; further: test concentration or dose not given here
T2 construct: 6xHis (N, cleaved yes); made in house; host or cells: E. coli One Shot BL21 Star
T2 sequence (Q93096 1-173): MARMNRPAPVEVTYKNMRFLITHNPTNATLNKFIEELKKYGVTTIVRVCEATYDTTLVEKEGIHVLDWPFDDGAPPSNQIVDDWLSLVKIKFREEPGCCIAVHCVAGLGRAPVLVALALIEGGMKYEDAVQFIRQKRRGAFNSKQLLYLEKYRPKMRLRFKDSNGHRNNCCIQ

recombinant PRL-3 = target: T3, recombinant PRL-3 (Homo sapiens, UniProt O75365); experiment: In vitro phosphatase assay (DiFMUP hydrolysis), PRL-3; further: test concentration or dose not given here
T3 construct: 6xHis (N, cleaved yes); made in house; host or cells: E. coli One Shot BL21 Star
T3 sequence (O75365 whole entry): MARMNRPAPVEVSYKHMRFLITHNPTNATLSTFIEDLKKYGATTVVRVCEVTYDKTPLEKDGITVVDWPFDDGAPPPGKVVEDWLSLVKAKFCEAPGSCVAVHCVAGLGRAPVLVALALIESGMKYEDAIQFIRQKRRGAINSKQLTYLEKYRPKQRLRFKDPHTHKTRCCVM

[1] = FDA-approved drug screen, compared to DMSO

Structure (SMILES)	% Phosphatase Activity (compared to DMSO) PRL-2 (recombinant PRL-2; [1]) [%]	% Phosphatase Activity (compared to DMSO) PRL-1 (recombinant PRL-1; [1]) [%]	% Phosphatase Activity (compared to DMSO) PRL-3 (recombinant PRL-3; [1]) [%]	% Phosphatase Activity (compared to DMSO) PRL-2 (recombinant PRL-2) [%]	% Phosphatase Activity (compared to DMSO) PRL-1 (recombinant PRL-1) [%]	% Phosphatase Activity (compared to DMSO) PRL-3 (recombinant PRL-3) [%]
CC(C)c1cc(C(=O)N2Cc3ccc(CN4CCN(C)CC4)cc3C2)c(O)cc1O [AT13387]	100	98	82			
C=CC(=O)Nc1cc(Nc2nccc(-c3cn(C)c4ccccc34)n2)c(OC)cc1N(C)CCN(C)C [AZD9291]	89	88	100			
Nc1nc(NC2CC2)c2ncn([C@H]3C=C[C@@H](CO)C3)c2n1 [Abacavir sulfate]	85	88	111			
NC(=O)c1ncn([C@@H]2O[C@H](CO)[C@@H](O)[C@H]2O)c1N [Acadesine]	100	91	95			
C[C@H]1O[C@H](O[C@H]2[C@H](O)[C@@H](O)[C@@H](O[C@H]3[C@H](O)[C@@H](O)C(O)O[C@@H]3CO)O[C@@H]2CO)[C@H](O)[C@@H](O)[C@@H]1N[C@H]1C=C(CO)[C@@H](O)[C@H](O)[C@H]1O (stereo partly drawn) [Acarbose]	102	94	73			
CCCC(=O)Nc1ccc(OCC(O)CNC(C)C)c(C(C)=O)c1 (stereo not drawn) [Acebutolol HCl]	123	105	86			
CC(=O)OC1CN2CCC1CC2 (stereo not drawn) [Aceclidine HCl]	95	97	85			
CC(=O)NC(CCC(N)=O)C(=O)O (stereo not drawn) [Aceglutamide]	96	107	87			
COc1ccc2c(c1)c(CC(=O)OCC(=O)O)c(C)n2C(=O)c1ccc(Cl)cc1 [Acemetacin]	121	93	94			
CC(=O)Nc1ccccc1 [Acetanilide]	110	110	81			
CC(=O)Nc1nnc(S(N)(=O)=O)s1 [Acetazolamide]	97	91	88			
CC(=O)NO [Acetohydroxamic acid]	111	91	75			
CC(=O)OCC[N+](C)(C)C [Acetylcholine Chloride]	97	87	95			
CC(=O)N[C@@H](CS)C(=O)O [Acetylcysteine]	99	89	70			
CC(=O)NC(CC(C)C)C(=O)O (stereo not drawn) [Acetylleucine]	99	110	89			
Nc1nc2c(ncn2COCCO)c(=O)[nH]1 [Aciclovir]	99	85	89			
Cc1cnc(C(=O)O)c[n+]1[O-] [Acipimox]	102	97	95			
COc1cc(C)c(/C=C/C(C)=C/C=C/C(C)=C/C(=O)O)c(C)c1C [Acitretin]	87	83	62			
O=C(O[C@H]1C[N+]2(CCCOc3ccccc3)CCC1CC2)C(O)(c1cccs1)c1cccs1 [Aclidinium Bromide]				117	106	90
COc1ccc(-c2ccc3cc(C(=O)O)ccc3c2)cc1C12CC3CC(CC(C3)C1)C2 [Adapalene]	141	183	68			
CC(C)(C)C(=O)OCOP(=O)(COCCn1cnc2c(N)ncnc21)OCOC(=O)C(C)(C)C [Adefovir Dipivoxil]	88	92	74			

Structure (SMILES)	% Phosphatase Activity (compared to DMSO) PRL-2 (recombinant PRL-2; [1]) [%]	% Phosphatase Activity (compared to DMSO) PRL-1 (recombinant PRL-1; [1]) [%]	% Phosphatase Activity (compared to DMSO) PRL-3 (recombinant PRL-3; [1]) [%]	% Phosphatase Activity (compared to DMSO) PRL-2 (recombinant PRL-2) [%]	% Phosphatase Activity (compared to DMSO) PRL-1 (recombinant PRL-1) [%]	% Phosphatase Activity (compared to DMSO) PRL-3 (recombinant PRL-3) [%]
Nc1ncnc2c1ncn2[C@@H]1O[C@H](CO)[C@@H](O)[C@H]1O [Adenosine]	93	100	87			
CNCC(=O)c1ccc(O)c(O)c1.Cl [Adrenalone HCl]	91	91	72			
CN(C)C/C=C/C(=O)Nc1cc2c(Nc3ccc(F)c(Cl)c3)ncnc2cc1O[C@H]1CCOC1.O=C(O)/C=C\C(=O)O.O=C(O)/C=C\C(=O)O [Afatinib (BIBW2992) Dimaleate]	94	97	101			
COc1ccc2cccc(CCNC(C)=O)c2c1 [Agomelatine]	98	92	76			
CCC[S+]([O-])c1ccc2[nH]c(NC(=O)OC)nc2c1 (stereo not drawn) [Albendazole Oxide]	100	93	95			
CCCSc1ccc2nc(NC(=O)OC)[nH]c2c1 [Albendazole]				88	102	78
CN1CCC(=C2c3ccccc3CCn3c(C=O)cnc32)CC1 [Alcaftadine]	89	98	85			
NCCCC(O)(P(=O)(O)O)P(=O)(O)O [Alendronate]				93	110	79
C=C1/C(=C\C=C2/CCC[C@]3(C)[C@@H]([C@H](C)CCCC(C)C)CC[C@@H]23)C[C@@H](O)C[C@@H]1O [Alfacalcidol]	82	99	75			
COc1cc2nc(N(C)CCCNC(=O)C3CCCO3)nc(N)c2cc1OC (stereo not drawn) [Alfuzosin HCl]	536	590	290			
C=CCc1cc(OC)c(O)c(C(=O)NCCO)c1 [Alibendol]	109	90	81			
COc1cc(Nc2ncc3c(n2)-c2ccc(Cl)cc2C(c2c(F)cccc2OC)=NC3)ccc1C(=O)O [Alisertib (MLN8237)]	96	85	81			
COCCCOc1cc(C[C@@H](C[C@H](N)[C@@H](O)C[C@H](C(=O)NCC(C)(C)C(N)=O)C(C)C)C(C)C)ccc1OC [Aliskiren Hemifumarate]	122	102	102			
Oc1ncnc2[nH]ncc12 [Allopurinol]	97	104	77			
C=CCNC(N)=S [Allylthiourea]	121	106	86			
CN(C)CCc1c[nH]c2ccc(CS(=O)(=O)N3CCCC3)cc12.O=C(O)CC(O)C(=O)O [Almotriptan Malate]	114	97	68			
Cn1c(=O)cc(N2CCC[C@@H](N)C2)n(Cc2ccccc2C#N)c1=O [Alogliptin]	123	112	96			
CCOC(=O)[C@H]1O[C@@H]1C(=O)N[C@@H](CC(C)C)C(=O)NCCC(C)C [Aloxistatin]	78	87	86			
CCCCC[C@H](O)/C=C/[C@H]1[C@H](O)CC(=O)[C@@H]1CCCCCCC(=O)O [Alprostadil]	113	117	98			
C=CC[C@]1(O)CC[C@H]2[C@@H]3CCC4=CC(=O)CCC4=C3C=C[C@@]21C [Altrenogest]	178	192	156			
CN(C)c1nc(N(C)C)nc(N(C)C)n1 [Altretamine]	89	89	71			
